The values below come from article PMC12598851, “Exploiting Avidity Effects for the Discovery of Low Affinity Protein-Binding Fragments” (Journal of Medicinal Chemistry, 2025).

Molecules are shown by their SMILES. Where “and” joins values, the source holds several entries; their conditions need not be identical. Equal values may be shown once. Entries after “also recorded” stand apart in the source; their conditions may differ. Read-outs that look alike come from different tables or passages of the source.

In one assay the target is T1, Streptavidin (SA) (Streptomyces avidinii, UniProt P22629).
T1 construct: purchased
T1 sequence (P22629 25-183, species assumed): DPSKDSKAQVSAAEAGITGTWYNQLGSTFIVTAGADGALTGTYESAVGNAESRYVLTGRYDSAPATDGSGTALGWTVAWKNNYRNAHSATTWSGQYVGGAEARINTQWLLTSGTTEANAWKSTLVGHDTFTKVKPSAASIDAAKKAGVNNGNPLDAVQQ
Put plainly: SPR, soluble compound binding to immobilized streptavidin. How it is done: The SPR binding affinity testing was conducted using the BIAcore 1K system (Cytiva) with BIAcore Insight Control Software. Streptavidin (50 μg/mL in 10 mM pH 5.0 NaOAc) was immobilized on a CM5 sensor chip (Cytiva) via amide coupling, using HBS-EP+ (10 mM HEPES, 150 mM NaCl, 3 mM EDTA, and 0.05% v/v Surfactant P20) as the immobilization buffer. Approximately 1000 RU of immobilization was achieved. Testing compounds were evaluated using the multiple-cycle kinetic/affinity method in PBS-P+ running buffer (20 mM phosphate buffer, 2.7 mM KCl, 137 mM NaCl, and 0.05% Surfactant P20), with a 200 s association time, 200 s dissociation time, and a flow rate of 45 μL/min. Binding affinities for the testing compounds were determined by fitting the sensor grams to both the 1:1 binding kinetics and steady-state affinity models provided in the BIAcore Insight Evaluation Software.
For orientation: SPR reads the build-up and loss of mass on a sensor chip optically.

Assay [1] concerns the target T2, tetrameric streptavidin (SA-647) (Streptomyces avidinii, UniProt P22629).
T2 construct: purchased ThermoFisher S3235
Put plainly: Bead pull-down: SA-647 retained by compound-displaying TentaGel beads, plate reader. Particulars: SA-647 500 nM. Type of assay: binding. The source says:
Compounds 2 and 3 were then constructed on 10 μm TentaGel beads via straightforward solid-phase synthesis, along with acetylated beads, which as a “blank” (Figure c). TentaGel beads consist of an amino-polystyrene core onto which is grafted a thick layer of amine-terminated PEG chains. An additional mini-PEG spacer was incorporated prior to coupling the compounds to further improve spatial accessibility and aqueous display of the compounds (see Experimental Section for detailed synthesis). The beads were incubated with AlexaFluor 647-conjugated SA (SA-647) in phosphate-buffered saline supplemented with 0.05% Tween 20 (PBST) for 1 h at room temperature in the dark. Following incubation, the beads were washed thoroughly (see Experimental Section for a detailed protocol), then resuspended in PBST. The amount of fluorescent SA retained by the resin was analyzed using a Tecan multiwell plate reader equipped with appropriate excitation and emission filters (excitation at 650 nm, emission at 665 nm).
(§1) General notes: • At each step, contents were mixed by pipetting up and down 3–5 times. • All steps following the addition of SA-647 were conducted in the dark. • SA-647 and mSA-647 were purchased from commercial sources; (SA-647: ThermoFisher cat#S3235, mSA-647: Millipore SAE178).
A 96-well Multiscreen hydrophilic assay plate (MilliporeSigma, MSBVN12) was activated by treating each well with 150 μL of 70% (v/v) ethanol in water. The solvent was removed under vacuum, and the wells were washed with PBST (3 × 150 μL). Fresh PBST (150 μL) was then added to each well.
The plate was drained and washed again with PBST (3 × 150 μL), followed by the addition of 150 μL PBST per well. Plates were shaken overnight at ambient temperature on an orbital plate shaker.
The next day, wells were drained and incubated with 150 μL of a 1:1 (v/v) solution of PBST:PBS blocking buffer (Thermo Scientific, 37538) for 1 h at room temperature. After removal of the blocking buffer, 100 μL PBST was added to each well and mixed thoroughly. A 20 μL aliquot from each well was transferred to a black 384-well flat-bottom plate (Corning, 3820) for background (blank) measurements.
The remaining PBST was removed, and the beads were incubated with SA-647 (500 nM in 1:1 PBST/blocking buffer, 150 μL per well) for 1 h at room temperature. After incubation, wells were washed with PBST while shaking (3 × 20 min). A final 150 μL PBST wash was performed and drained. Fresh PBST (80 μL) was added to each well, and the contents were transferred to labeled PCR tubes. Samples were briefly vortexed and mixed by pipetting.
Each sample was transferred to a black 384-well plate in triplicate (3 × 20 μL per well). The plate was sealed with a foil sticker and centrifuged at 250g for 1 min. Fluorescence intensity was measured using a TECAN plate reader. Background fluorescence (from blank wells) was subtracted prior to further data analysis.

In assay [2] the test system is monomeric streptavidin (mSA-647). The assay can be described thus: Bead pull-down with monomeric streptavidin. It is filed as binding. The following applies: mSA-647 500 nM, 1 h, PBST, room temperature. As for the experimental part:
To investigate this, compound 2-displaying, compound 3-displaying, or blank (acetylated) beads were incubated with tetrameric SA-647 or iFluor647-conjugated monomeric streptavidin (mSA-647). Biotin-displaying beads (Figure S3) were also included in this experiment as a high-affinity comparator. […] No binding of either protein to compound 3-displaying beads was observed.
3 Stable binding of tetrameric SA to beads displaying compound 2 is highly dependent on avidity. […] Each compound was represented by 1 million 10 μm TentaGel beads, with 250,000 beads used per technical replicate. (b) Effect of ligand functionalization density on compound binding. Beads were functionalized with compound 2, compound 3, or biotin at varying surface densities (100% to 5%) and incubated with SA-647 (500 nM) for 1 h in PBST at room temperature as previously, before recording the fluorescence intensity.
as §1

The target of another assay is T3, SA-647 (Streptomyces avidinii, UniProt P22629).
T3 construct: purchased ThermoFisher S3235
T3 sequence (P22629 37-163 limits assumed): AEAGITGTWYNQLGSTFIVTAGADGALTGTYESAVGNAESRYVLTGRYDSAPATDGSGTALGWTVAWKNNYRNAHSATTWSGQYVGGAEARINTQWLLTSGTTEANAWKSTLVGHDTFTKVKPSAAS
The assay can be described thus: Dose-dependent binding of SA-647 to bead-displayed ligands by FACS (MFI). The following applies: SA-647 0.1 to 1000 nM. As for the experimental part: We next asked if the bead binding assay could distinguish complexes with different affinities for SA. 10 μm TentaGel beads displaying compound 2, compound 3, the oxazole analogue of compound 2 (Figure S4), or the SA-binding macrocycle 1 shown in Figure a were exposed to different concentrations of SA-647 ranging from 0.1 to 1000 nM. After washing, the intensity of fluorescence retained on the beads was measured using a flow cytometer, and the results were plotted as the mean fluorescence intensity (MFI) on the beads vs the protein concentration. […] Macrocycle 1, which binds SA with a K D of about 600 nM in solution (more than 1000 times more tightly than compound 2), binds SA-647 on resin at far lower concentrations than does compound 2.

In assay [3] the target is T2, tetrameric streptavidin (SA-647). The assay can be described thus: Bead pull-down: SA-647 retained by compound-displaying TentaGel beads, plate reader. Type of assay: binding. Particulars: SA-647 (100 nM), plate reader.
[4] abbreviates: soluble mini-PEG attached compound, immobilized SA, read-out: KD (SPR).

T2 sequence (P22629 37-163 limits assumed): as above

On to `CC(=O)N(Cc1ccccc1)Cc1nc(C(=O)N(C)CC(=O)NCCOCCOCC(=O)NCC(N)=O)cs1` [Compound 3], for which the “binding to SA by SPR (in words)” value at Streptavidin (SA) (soluble compound, immobilized SA) is “no detectable binding”. Further, the “Fluorescence intensity, Average” value in assay [1] (12 replicates, after background subtraction, Z' calculation) is recorded as 177. For the same molecule, in assay [1] (1 h, PBST, room temperature, after washing), the “binding of SA-647 to bead-displayed compound (fluorescence)” value is listed as “failed to retain more labeled SA than the acetylated “blank” beads; also recorded: No binding”. Besides, the “Fluorescence intensity, individual replicate” value in assay [1] (replicates 1-12, after background subtraction, Z' calculation) was 76 and 119 and 260 and 226 and 50 and 156 and 122 and 81 and 136 and 180 and 145 and 568. Also, the “binding of mSA-647 to bead-displayed ligand” value in assay [2] is on record as “No binding”. For the same molecule, at SA-647, the “dose-dependent binding of SA-647 (MFI by flow cytometer)” value is “not”.

One may read the Kd as the equilibrium constant for the complex coming apart. With `CN(CC(=O)NCCOCCOCC(=O)NCC(N)=O)C(=O)c1csc(CN(Cc2cccnc2)C(=O)C2CCC(=O)C2)n1` (stereo not shown) [Compound 4], the “improvement of KD over the parent compound 2” value at Streptavidin (SA) (SPR, immobilized SA) is on record as 7.8 fold. In addition, on Streptavidin (SA) (setting [4]), the Kd came out at 90 µM. Further, the “SA-647 retained by bead-displayed grown compound relative to parent compound 2” value in assay [3] is given as “retained the most SA-647”.

As to `CN(CC(=O)NCCOCCOCC(=O)NCC(N)=O)C(=O)c1csc(CN(Cc2cccnc2)C(=O)c2ccc(F)c(C#N)c2)n1` [Compound 5], on Streptavidin (SA) (supplementary CSV, solution dissociation constants, read-out: KD for SA), the Kd stood at 160 µM.

For `CN(CC(=O)NCCOCCOCC(=O)NCC(N)=O)C(=O)c1csc(CN(Cc2cccnc2)C(=O)c2ccc(F)c(F)c2)n1` [Compound 6], the Kd on Streptavidin (SA) (setting [4]) amounted to 330 µM. Further, the “SA-647 retained by bead-displayed grown compound relative to parent compound 2” value in assay [3] is “captured less SA-647 than bead-displayed 4 but more than bead-displayed 2”.

With `CN(CC(=O)NCCOCCOCC(=O)NCC(N)=O)C(=O)c1csc(CN(Cc2cccnc2)C(=O)c2ccc3[nH]ccc3c2)n1` [Compound 7], the Kd on Streptavidin (SA) (setting [4]) came out at 780 µM. Besides, the “SA-647 retained by bead-displayed grown compound relative to parent compound 2” value in assay [3] is reported as “retained less SA-647 than compound 2”.

As to `O=C(O)CCCC[C@@H]1SC[C@@H]2NC(=O)N[C@@H]21` [biotin, reference compound], the “dependence of SA-647 retention on ligand density” value in assay [1] (site functionalization 100% to 5%) is “insensitive to ligand density”. Moreover, the “binding of mSA-647 to bead-displayed ligand” value in assay [2] is “readily observable”.
